Laboratory results published in patent publication US7531547B2, “Diaminopyrimidines as P2X3 and P2X2/3 modulators” (Roche Palo Alto LLC, priority 2005, dated 2009).

Experiments:
human P2X2/3 receptor = target: T1, human P2X2/3 receptor (Homo sapiens, UniProt P56373+Q9UBL9); test: P2X2/3 FLIPR (Fluorometric Imaging Plate Reader) assay, CHO-K1 cells; assay type: cell-based; settings: CHO-K1 cells transfected with human P2X2/3; agonist α,β-meATP 5 μM; Fluo-3 calcium fluorescence; read-out: pIC50 for the P2X2/3 receptor (converted)
T1 construct: expressed in transfected cells; host or cells: CHO-K1
T1 sequence (Q9UBL9 1-471): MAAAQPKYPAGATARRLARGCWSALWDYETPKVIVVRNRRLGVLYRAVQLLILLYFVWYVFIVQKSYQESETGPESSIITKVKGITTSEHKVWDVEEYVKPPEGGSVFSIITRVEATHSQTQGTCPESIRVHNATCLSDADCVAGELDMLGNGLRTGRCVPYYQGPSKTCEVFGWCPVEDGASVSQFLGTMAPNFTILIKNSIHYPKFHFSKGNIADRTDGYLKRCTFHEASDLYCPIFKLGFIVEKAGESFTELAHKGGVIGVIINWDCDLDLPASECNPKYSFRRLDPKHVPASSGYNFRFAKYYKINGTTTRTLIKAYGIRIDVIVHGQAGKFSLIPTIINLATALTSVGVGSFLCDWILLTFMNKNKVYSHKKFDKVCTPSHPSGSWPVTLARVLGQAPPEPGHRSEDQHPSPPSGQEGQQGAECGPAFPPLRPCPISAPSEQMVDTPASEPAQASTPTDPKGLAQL
T1 sequence (P56373 1-397): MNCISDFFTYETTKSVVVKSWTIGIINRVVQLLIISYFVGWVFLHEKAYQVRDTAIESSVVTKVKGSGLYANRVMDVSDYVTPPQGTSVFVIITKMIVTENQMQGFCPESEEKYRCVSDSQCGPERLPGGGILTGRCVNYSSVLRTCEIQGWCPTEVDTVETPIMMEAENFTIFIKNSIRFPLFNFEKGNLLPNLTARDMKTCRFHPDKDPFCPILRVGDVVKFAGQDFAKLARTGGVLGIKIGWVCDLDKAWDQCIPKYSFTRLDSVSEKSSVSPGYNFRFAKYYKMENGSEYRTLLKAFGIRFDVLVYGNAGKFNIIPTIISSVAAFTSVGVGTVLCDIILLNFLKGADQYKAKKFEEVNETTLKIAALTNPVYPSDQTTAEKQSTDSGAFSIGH
Description: (§1) CHO-K1 cells were transfected with cloned rat P2X3 or human P2X2/3 receptor subunits and passaged in flasks. 18-24 hours before the FLIPR experiment, cells were released from their flasks, centrifuged, and resuspended in nutrient medium at 2.5×10^5 cells/ml. The cells were aliquoted into black-walled 96-well plates at a density of 50,000 cells/well and incubated overnight in 5% CO2 at 37° C. On the day of the experiment, cells were washed in FLIPR buffer (calcium- and magnesium-free Hank's balanced salt solution, 10 mM HEPES, 2 mM CaCl2, 2.5 mM probenecid; FB). Each well received 100 μl FB and 100 μl of the fluorescent dye Fluo-3 AM [2 μM final conc.]. […]
(§2) Test compounds (dissolved in DMSO at 10 mM and serially diluted with FB) or vehicle were added to each well (25 μl of a 4× solution) and allowed to equilibrate for 20 minutes at room temperature. The plates were then placed in the FLIPR and a baseline fluorescence measurement (excitation at 488 nm and emission at 510-570 nm) was obtained for 10 seconds before a 100 μl/well agonist or vehicle addition. […] Fluorescence was measured for an additional 2 minutes at 1 second intervals after agonist addition. A final addition of ionomycin (5 μM, final concentration) was made to each well of the FLIPR test plate to establish cell viability and maximum fluorescence of dye-bound cytosolic calcium. […]

rat P2X3 receptor = target: T2, rat P2X3 receptor (Rattus norvegicus, UniProt P49654); test: P2X3 FLIPR (Fluorometric Imaging Plate Reader) assay, CHO-K1 cells; assay type: cell-based; settings: CHO-K1 cells transfected with rat P2X3; agonist α,β-meATP 1 μM; Fluo-3 calcium fluorescence; read-out: pIC50 for the P2X3 receptor (converted)
T2 construct: expressed in transfected cells; host or cells: CHO-K1
T2 sequence (P49654 1-397): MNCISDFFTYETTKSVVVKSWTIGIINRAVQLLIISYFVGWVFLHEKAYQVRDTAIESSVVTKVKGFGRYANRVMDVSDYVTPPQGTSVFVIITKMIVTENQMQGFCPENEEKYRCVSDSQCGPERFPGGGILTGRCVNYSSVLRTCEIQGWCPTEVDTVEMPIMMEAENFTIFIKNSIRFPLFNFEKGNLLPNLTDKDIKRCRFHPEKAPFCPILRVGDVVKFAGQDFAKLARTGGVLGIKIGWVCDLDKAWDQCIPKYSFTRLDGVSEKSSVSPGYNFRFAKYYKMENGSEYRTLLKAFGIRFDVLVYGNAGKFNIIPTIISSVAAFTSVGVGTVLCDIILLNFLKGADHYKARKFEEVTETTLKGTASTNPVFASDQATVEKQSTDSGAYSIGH
Description: as §1, §2

| melting point | IC50 (human P2X2/3 receptor) | IC50 (rat P2X3 receptor) | SMILES |
| --- | --- | --- | --- |
| 156 to 159 °C | – | – | C#Cc1ccc(I)c(Oc2cnc(N)nc2N)c1 [Compound 27, 5-(5-Ethynyl-2-iodo-phenoxy)-pyrimidine-2,4-diamine] |
| 163.2 to 164.1 °C | – | – | C#Cc1cc(Oc2cnc(N)nc2N)c(C#C)cc1OC [Compound 25, 5-(2,5-Diethynyl-4-methoxy-phenoxy)-pyrimidine-2,4-diamine] |
| – | ~10.2 nM | ~5.75 nM | C#Cc1cc(Oc2cnc(N)nc2N)c(C(C)C)cc1O [4-(2,4-Diamino-pyrimidin-5-yloxy)-2-ethynyl-5-isopropyl-phenol] |
| 225.5 to 226.8 °C | – | – | COc1cc(C(C)C)c(Oc2cnc(N)nc2N)cc1C#CC1CC1 [Compound 19, 5-(5-Cyclopropylethynyl-2-isopropyl-4-methoxy-phenoxy)-pyrimidine-2,4-diamine] |
